“Also recorded” adds a separate entry of the source.
Test system: Male NMRI mice
Experiment: Animal model of autism: defective habituation (locomotor activity) in mice rendered hypoglutamatergic with MK-801
Format: in vivo
Source text: The inventor of the present invention and her coworkers have developed an animal model of autism, where mice are rendered hypoglutamatergic by treatment with the glutamate antagonist MK-801 (dizocilpine). Similarly to persons with autism, these hypoglutamatergic animals display defective habituation, perseverant behavior (e.g. relentless forward locomotion, so-called “obstinate progression”), stereotypies, a meager behavioral repertoire and difficulties to change behavioral program. The researchers have chosen to focus their investigation on the defective habituation, since this variable is easily quantified, and a prominent feature of autism.
Male NMRI mice (B&K Universal AB, Sollentuna, Sweden) weighing 25-30g at the time of testing were used in the experiments. Animals were housed in groups of about 20 per cage for at least one week before the experiment was carried out, with free access to water and food. Temperature: 20-22° C.; 12h light-dark cycle (lights on 6 AM).
(+)-MK-801 hydrogen maleate (dizocilpine; Research Biochemical Inc) was dissolved in physiological saline. M100907 [(+)-(R)-α-(2,3-dimethoxyphenyl)-1-[2-(4-fluorophenyl) ethyl]-4-piperidinemethanol; courtesy Hoechst Marion Roussel, Inc USA] was dissolved in a few microliters of acetic acid and a 5.5% glucose solution. The injection volume was 10 ml/kg. Control. animals were always given the same solvent as the drug was dissolved in.
Locomotor activity was measured using activity meters (Diaiscan animal activity monitor, model RXYZM (16) Tao, Omnitech Electronics, Columbus, Ohio, USA). The equipment consists of eight light and sound attenuated boxes (42×42×30 cm) with infrared photo sensors along the front and the side near the floor of the boxes.
When moved to a novel environment, normal mice display an initial phase of exploratory activity lasting about 30 minutes. […] The results shown in the figure are medians and upper and lower quartiles.
The inventor and […] co-workers then tested a compound according to the invention, namely M100907. […] M100907 was administered intraperitoneally immediately before the commencement of the behavioral recording. The M100907 doses were 0.001., 0.01 and 0.1 mg/kg, respectively. The results shown are medians and upper and lower quartiles (veh=vehicle=controls).

Row | SMILES | effect on MK-801-induced deficient habituation (loss of habituation, FIG. 2) (M100907 0.001, 0.01 and 0.1 mg/kg intraperitoneally immediately before behavioral recording, MK-801-treated mice, ordinate m/30 min) | interference with normal behavior (M100907 0.001, 0.01 and 0.1 mg/kg intraperitoneally, mice) | hyperactivity induced by the glutamate antagonist MK-801 (mouse, M100907 intraperitoneally) | habituation in novel environment (loss of habituation, FIG. 1) (MK-801 0.3 or 0.8 mg/kg intraperitoneally immediately before 70 minutes recording, ordinate counts/5 min interval)
1 | COc1cccc([C@H](O)C2CCN(CCc3ccc(F)cc3)CC2)c1OC [M100907, R-(+)-α-(2,3-dimethoxyphenyl)-1-[2-(4-fluorophenylethyl)]-4-piperidine-methanol] | displays anti-autistic effects; also recorded: alleviates the deficient habituation | without interfering with normal behavior | reducing the hyperactivity | –
2 | C[C@]12N[C@H](Cc3ccccc31)c1ccccc12 [MK-801, reference compound] | – | – | – | deficient habituation; also recorded: impaired habituation

— patent US6358977B1, “Use of 4-piperidinemethanol derivatives in treatment of neurodevelopmental disorders” (A. Carlsson Research AB, priority 1998, dated 2002)
